Activity calls are given as the source filed them.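 The calls were made as follows: active = IC50 of 10 µM or lower; inactive = IC50 above 10 µM.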

In this assay the target is Mitogen-activated protein kinase kinase kinase 5 (Homo sapiens) (UniProt Q99683). The assay can be described thus: MAP3K5 inhibition concentration-response curves – biochemical, AlphaScreen, MKK6 phosphorylation, dose response (AID 1159605).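 Also: ASK1 phosphorylation of MKK6 substrate detected with anti-phospho-MKK6 antibody beads; inhibitors lower the luminescent signal by blocking MKK6 phosphorylation.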 The following applies: ASK1 MKK6 phosphorylation, AlphaScreen luminescence. On the technique in general: Alpha assays give light when donor and acceptor beads are brought close together.
Sequence of Mitogen-activated protein kinase kinase kinase 5 (Homo sapiens) (Q99683 whole entry, looked up): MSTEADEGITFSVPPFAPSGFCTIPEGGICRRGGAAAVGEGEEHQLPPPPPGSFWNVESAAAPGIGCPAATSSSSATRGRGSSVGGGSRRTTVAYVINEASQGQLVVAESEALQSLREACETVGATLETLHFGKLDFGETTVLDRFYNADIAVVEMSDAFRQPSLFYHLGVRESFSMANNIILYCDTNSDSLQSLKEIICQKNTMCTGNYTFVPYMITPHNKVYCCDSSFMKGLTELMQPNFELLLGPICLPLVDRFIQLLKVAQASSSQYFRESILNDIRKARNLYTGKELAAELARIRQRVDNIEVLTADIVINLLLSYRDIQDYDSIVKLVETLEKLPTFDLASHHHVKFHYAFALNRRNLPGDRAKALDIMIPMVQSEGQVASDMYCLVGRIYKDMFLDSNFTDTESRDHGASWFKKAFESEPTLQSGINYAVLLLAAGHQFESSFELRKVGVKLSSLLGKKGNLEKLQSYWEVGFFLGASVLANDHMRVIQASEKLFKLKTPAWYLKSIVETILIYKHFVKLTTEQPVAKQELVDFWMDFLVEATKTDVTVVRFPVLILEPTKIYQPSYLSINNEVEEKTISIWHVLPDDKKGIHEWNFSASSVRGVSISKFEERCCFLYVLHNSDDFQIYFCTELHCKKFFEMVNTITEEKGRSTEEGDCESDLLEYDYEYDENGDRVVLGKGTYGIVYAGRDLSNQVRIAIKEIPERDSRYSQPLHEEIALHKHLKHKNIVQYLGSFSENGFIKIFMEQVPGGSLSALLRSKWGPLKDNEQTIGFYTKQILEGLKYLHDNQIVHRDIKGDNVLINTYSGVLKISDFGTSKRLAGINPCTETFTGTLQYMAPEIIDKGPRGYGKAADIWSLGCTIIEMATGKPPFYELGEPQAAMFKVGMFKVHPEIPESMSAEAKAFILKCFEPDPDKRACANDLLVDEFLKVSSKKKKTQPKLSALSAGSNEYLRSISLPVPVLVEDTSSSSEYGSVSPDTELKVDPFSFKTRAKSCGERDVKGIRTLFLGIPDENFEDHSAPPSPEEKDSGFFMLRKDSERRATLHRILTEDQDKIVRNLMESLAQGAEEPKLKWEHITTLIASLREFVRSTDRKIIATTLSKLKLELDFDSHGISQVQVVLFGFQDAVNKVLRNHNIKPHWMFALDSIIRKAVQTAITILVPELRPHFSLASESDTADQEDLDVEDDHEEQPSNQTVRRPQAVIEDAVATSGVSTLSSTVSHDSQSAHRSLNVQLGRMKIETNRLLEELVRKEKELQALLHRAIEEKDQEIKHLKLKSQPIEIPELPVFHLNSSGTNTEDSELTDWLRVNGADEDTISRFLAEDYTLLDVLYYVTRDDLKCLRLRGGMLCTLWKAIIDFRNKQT
Usually IC50 stands for the concentration that inhibits the measured activity by half. Consider `FC(F)(F)c1cccc(CNc2nc(N3CCN(Cc4ccc5c(c4)OCO5)CC3)nc3c2ncn3-c2ccccc2)c1`, for which the IC50 was > 20.1 µM (inactive). On to `FC(F)(F)c1ccc(Cn2cnc3c(Nc4ccc(N5CCOCC5)cc4)nc(N4CCN(Cc5ccc6c(c5)OCO6)CC4)nc32)cc1`, for which the IC50 entry is “inactive”. Consider `CC(C)n1c(-c2ccc(C(N)=O)cc2)nc2c(Nc3ccc(Oc4ccccc4)cc3)ncnc21`, for which the IC50 was > 20 µM (inactive). For `c1cc(Nc2ccc3c(c2)OCO3)nc(N2CCN(Cc3ccc4c(c3)OCO4)CC2)n1` the value was > 20.1 µM (inactive); for `FC(F)(F)c1ccc(Cn2cnc3c(Nc4ccc5c(c4)OCO5)nc(NC4CCN(Cc5ccccc5)CC4)nc32)cc1`, > 20.5 µM (inactive). For the compound `COc1cc2nc(Nc3nccc4ccccc34)nc(Nc3ccc(N4CCOCC4)cc3)c2cc1OC`, the IC50 result was “inactive”. In the case of `COc1cc2nc(NC3CCN(Cc4ccccc4)CC3)nc(Nc3ccc(N4CCOCC4)cc3)c2cc1OC`, the IC50 entry is “inactive”. Take `Cc1cc(NCCc2ccc(O)cc2)nc(Nc2cccc(N(C)C)c2)n1`: the IC50 result is “inactive”. For `COc1cc2nc(NCc3ccc4c(c3)OCO4)nc(Nc3ccc(N4CCOCC4)cc3)c2cc1OC` the value was > 19.9 µM (inactive); for `COc1ccc(CCNc2nc(Nc3ccc(N4CCOCC4)cc3)nc3c2ncn3-c2ccsc2)cc1`, 9.53 µM. As to `CC(C)n1cnc2c(Nc3ccc(N4CCOCC4)cc3)nc(N3CCN(Cc4ccc5c(c4)OCO5)CC3)nc21`, the IC50 entry is “inactive”. For `Nc1cccc(-c2nc3ncnc(Nc4ccc(N5CCOCC5)cc4)c3[nH]2)c1` the value was > 18.2 µM (inactive). For `CCCNc1nc(Nc2ccc(N3CCOCC3)cc2)nc2c1ncn2C1CCCCC1` the value was “inactive”; for `COc1ccc(-c2nc3ncnc(Nc4cc(OC)c(OC)c(OC)c4)c3[nH]2)cn1`, > 18.1 µM (inactive); for `Oc1ccc(CCNc2nc(NC3CCN(Cc4ccccc4)CC3)nc3c2ncn3Cc2ccc(C(F)(F)F)cc2)cc1`, “inactive”. Turning to `Cc1cnc(Nc2nc3ccccc3n2C)nc1Nc1ccc(N2CCOCC2)cc1`, the IC50 was > 21.8 µM (inactive). For `c1ccc(OCCNc2nc(Nc3ccc(-n4ccnc4)cc3)nc3c2ncn3C2CCCCC2)cc1` the value was “inactive”; for `Cn1cc(-c2ccc3cnc(Nc4ccc(-c5ccc(N6CCOCC6)nc5)cc4)nc3c2Cl)cn1`, > 19.2 µM (inactive); for `Oc1ccc(CCNc2nc(N3CCN(Cc4ccc5c(c4)OCO5)CC3)nc3c2ncn3-c2ccsc2)cc1`, “inactive”. As to `c1cc(-c2ccc3[nH]ncc3c2)nc(Nc2ccc(N3CCOCC3)cc2)n1`, the IC50 was > 19.2 µM (inactive). For `COc1cc2nc(Nc3cccc(N(C)C)c3)nc(NCCOc3ccccc3)c2cc1OC`, the IC50 was > 20.4 µM (inactive). For `COc1cc2nc(Nc3ccccc3)nc(Nc3ccc(N4CCOCC4)cc3)c2cc1OC` the value was > 24 µM (inactive).

In the case of `CN(C)c1cc(F)cc(-c2ccnc(Nc3ccc(-n4cnc(N5CCC(O)CC5)n4)cc3)n2)c1`, the IC50 is > 19.2 µM (inactive). Consider `CC(C)n1cnc2c(Nc3ccc4c(c3)OCO4)nc(Nc3ccc(N4CCOCC4)cc3)nc21`, for which the IC50 was > 20 µM (inactive). For `Cc1ccc(-c2cccc3cnc(Nc4ccc(-n5cnc(C)n5)cc4)nc23)cn1`, the IC50 was > 19.2 µM (inactive). In the case of `c1ccc(CN2CCC(Nc3nc(N4CCN(Cc5ccc6c(c5)OCO6)CC4)nc4c3ncn4C3CCCCC3)CC2)cc1`, the IC50 entry was “inactive”. With `O=C(Nc1ccccc1)c1ccccc1Nc1ccnc(Nc2ccc(N3CCOCC3)cc2)c1`, the IC50 was > 19.2 µM (inactive). For `Cc1ccccc1-c1cscc1Nc1cnn(-c2cccc(C(=O)Nc3ccc(N4CCOCC4)cc3)c2)c1` the value was > 19.2 µM (inactive). For `COc1ccc2c(c1)CC(C(=O)Nc1ccc(-c3cn[nH]c3)cc1OCCOCc1ccccc1)CO2` (stereo not given) the value was > 19.2 µM (inactive); for `Cc1cc(Nc2ccc(N3CCOCC3)cc2)nc(N2CCN(Cc3ccc4c(c3)OCO4)CC2)n1`, “inactive”; for `FC(F)(F)c1cccc(CNc2nc(Nc3ccc(N4CCOCC4)cc3)nc3c2ncn3-c2ccsc2)c1`, 8.62 µM. `Cc1n[nH]c(C)c1-c1cc(F)cc(-c2ccnc(Nc3ccc(-n4cnc(N5CCOCC5)n4)cc3)n2)c1`: the IC50 was > 19.2 µM (inactive).

As for `O=C(NC1CC1)c1ccc(-c2nc(NCc3cccc(C(F)(F)F)c3)c3ncn(-c4ccccc4)c3n2)cc1`, the IC50 was > 19.9 µM (inactive).

Regarding `COc1cc2nc(Nc3ccc(N4CCOCC4)cc3)nc(Nc3cc(OC)c(OC)c(OC)c3)c2cc1OC`, the IC50 result is “inactive”. Regarding `COc1cc(Nc2ccnc(Nc3cccc(N(C)C)c3)n2)cc(OC)c1OC`, the IC50 is 6.84 µM. Regarding `FC(F)(F)c1ccc(Cn2cnc3c(NCc4ccccc4)nc(-c4ccc(N5CCOCC5)nc4)nc32)cc1`, the IC50 is > 19.9 µM (inactive). With `COc1cc(Nc2nc(N3CCc4ccccc4C3)nc3c2ncn3C(C)C)cc(OC)c1OC`, the IC50 was > 20.1 µM (inactive). For `CC(C)n1cnc2c(Nc3ccc4c(c3)OCO4)nc(NCc3ccc4c(c3)OCO4)nc21`, the IC50 entry is “inactive”. For `COc1ccc(-c2ncn(-c3ccc(Nc4nccc(-c5cc(C#N)cc(N6CCNCC6)c5)n4)cc3)n2)cn1`, the IC50 was > 19.2 µM (inactive). Take `FC(F)(F)c1cccc(CNc2nc(N3CCN(c4ccccn4)CC3)nc3c2ncn3-c2ccsc2)c1`: the IC50 is > 20 µM (inactive). Turning to `COc1cc2nc(Nc3cccc(N(C)C)c3)nc(Nc3cc(OC)c(OC)c(OC)c3)c2cc1OC`, the IC50 was > 19 µM (inactive). For `O=C(Nc1ccc(-c2ncnc3[nH]ccc23)cc1)C1COc2ccccc2O1` (stereo not given) the value was > 19.2 µM (inactive). `CC(C)n1cnc2c(NCc3cccc(C(F)(F)F)c3)nc(Nc3ccc(N4CCOCC4)cc3)nc21`: the IC50 is 5.42 µM.

Turning to `COc1ccc(CCNc2nc(Nc3cccc(N(C)C)c3)nc3c2ncn3C(C)C)cc1`, the IC50 was > 20 µM (inactive). For `CN1CCN(c2nc(C3COc4ccccc4O3)nc3ccc(-c4cn[nH]c4)cc23)CC1` (stereo not given) the value was > 19.2 µM (inactive); for `Fc1ccc(-c2c(-c3ccnc(Nc4ccc(N5CCOCC5)cc4)c3)noc2NCc2ccccc2)cc1`, > 19.2 µM (inactive).

Consider `CC(C)n1cnc2c(Nc3ccc(N4CCOCC4)cc3)nc(Nc3ccc(-n4ccnc4)cc3)nc21`, for which the IC50 is > 19.1 µM (inactive). For the compound `Cc1cnc(Nc2ccc(N3CCOCC3)cc2)nc1NCc1cccc(C(F)(F)F)c1`, the half-maximal inhibitory concentration (IC50) is 8.86 µM.

For `c1ccc(-n2cnc3c(Nc4ccc(N5CCOCC5)cc4)nc(Nc4cccnc4)nc32)cc1`, the IC50 is > 15.9 µM (inactive). For `COc1cc2nc(Nc3cccc(N(C)C)c3)nc(Nc3ccccc3)c2cc1OC` the value was “inactive”. As to `Fc1cc(-c2ccnc(Nc3ccc(N4CCOCC4)cc3)n2)cc(N2CCN(C3CC3)CC2)c1`, the IC50 is > 19.2 µM (inactive). Turning to `c1ccc2c(-c3nccc(Nc4ccc(N5CCOCC5)cc4)n3)csc2c1`, the IC50 is > 21.8 µM (inactive).

`COc1cc(NC(=O)c2cccc(-n3cc(NC(=O)Nc4ccc(-c5ccccc5)cc4)cn3)c2)cc(OC)c1OC`: the IC50 is > 19.2 µM (inactive). For `COc1cc2nc(Nc3cccc(N(C)C)c3)nc(Nc3ccc(NC(C)=O)cc3)c2cc1OC` the value was 7.74 µM. For `COc1cc2nc(Nc3ccc(N4CCOCC4)cc3)nc(Nc3ccc4c(c3)OCO4)c2cc1OC` the value was “inactive”; for `FC(F)(F)c1cccc(CNc2nc(Nc3ccc(N4CCOCC4)cc3)nc3nc[nH]c23)c1`, “inactive”. `Cc1c[nH]c2ncnc(-c3ccc(NC(=O)Nc4ccccc4)cc3)c12`: the IC50 was > 19.2 µM (inactive). For `c1nc(Nc2ccc(N3CCOCC3)cc2)c2[nH]c(N3CCN(Cc4ccc5c(c4)OCO5)CC3)nc2n1` the value was > 13.8 µM (inactive). `CN(C)c1cccc(Nc2nccc(NCCOc3ccccc3)n2)c1`: the IC50 entry was “inactive”. Turning to `O=C(Cc1cn(-c2ccc(N3CCN(Cc4ccc5c(c4)OCO5)CC3)nn2)c2ccccc12)Nc1ccc(N2CCOCC2)cc1`, the IC50 is > 20 µM (inactive).

As to `Cc1cc(NCCOc2ccccc2)nc(Nc2cccc(N(C)C)c2)n1`, the IC50 was 6.99 µM.

`COc1cc(Nc2nc(-c3ccc(C(N)=O)cc3)nc3c2ncn3C2CCCCC2)cc(OC)c1OC`: the IC50 result is “inactive”. In the case of `COc1cc2nc(Nc3ccc(N4CCOCC4)cc3)nc(NCCOc3ccccc3)c2cc1OC`, the IC50 entry was “inactive”. Turning to `CCN(CC)c1nc(Nc2ccc(N3CCOCC3)cc2)nc(N2CCN(Cc3ccc4c(c3)OCO4)CC2)n1`, the IC50 is 8.17 µM.

As for `Cc1cc(NCCc2ccc(O)cc2)nc(N2CCN(Cc3ccc4c(c3)OCO4)CC2)n1`, the IC50 is > 18.1 µM (inactive). Consider `O=C(Cc1cn(-c2ccc(Nc3nccc4ccccc34)nn2)c2ccccc12)Nc1ccc2c(c1)OCO2`, for which the IC50 was > 21.6 µM (inactive).

Take `COc1cc2nc(Nc3nccc4ccccc34)nc(Nc3ccc(NC(C)=O)cc3)c2cc1OC`: the IC50 entry was “inactive”. On to `Cc1[nH]ncc1-c1ccc2nc(NC(=O)C3COc4ccc(F)cc4C3)sc2c1` (stereo not given), for which the IC50 was > 19.2 µM (inactive). As for `c1ccc(CN2CCC(Nc3nc(Nc4ccc(N5CCOCC5)cc4)nc4c3ncn4C3CCCCC3)CC2)cc1`, the IC50 is 7.91 µM.

With `COc1cc2nc(Nc3ccc(-n4ccnc4)cc3)nc(Nc3ccc4c(c3)OCO4)c2cc1OC`, the IC50 is > 20 µM (inactive).

In the case of `Oc1ccc(CCNc2nc(N3CCN(c4ccccn4)CC3)nc3c2ncn3-c2ccsc2)cc1`, the IC50 was > 21.3 µM (inactive). Regarding `Cc1ccc(-c2ncn(-c3ccc(Nc4ncc(Cl)c(-c5ccnn5C)n4)cc3)n2)cn1`, the IC50 is > 19.2 µM (inactive). For the compound `FC(F)(F)c1ccc(Cn2cnc3c(Nc4ccc(N5CCOCC5)cc4)nc(NC4CCN(Cc5ccccc5)CC4)nc32)cc1`, the IC50 entry is “inactive”. As for `FC(F)(F)c1ccc(Cn2cnc3c(NCc4ccccc4)nc(Nc4ccccc4)nc32)cc1`, the IC50 is > 20.1 µM (inactive). As for `O=C(NCCN1CCOCC1)c1cccc(-n2ncc3cc(Nc4c(F)cccc4[N+](=O)[O-])ccc32)c1`, the IC50 is > 19.2 µM (inactive).
